Measured values as given in patent US20140296263A1, “SUBSTITUTED XANTHINE DERIVATIVES” (CONCERT PHARMACEUTICALS, INC., priority 2011, published 2014).

Assays:
[1] = tested on: MCP-1; assay: MCP-1 assay (blood donors); format: cell-based, human; settings: for IC50: Homo sapiens
Excerpt: MCP-1 is a known pro-inflammatory cytokine that plays important roles in various diseases.

[2] = tested on: reactive oxygen species (ROS); assay: ROS inhibition assay in whole blood (neutrophils, DHR-123 flow cytometry); format: cell-based, human; settings: fMLP or PMA stimulated whole blood, potency relative to compound 401, FIG. 1
Description: Whole blood (sodium heparin vacutainer) was obtained from two normal, healthy donors from Research Blood Components, Boston, Mass. For each donor sample, two duplicate assays were performed according to the following procedure. Whole blood (100 μl) was added to wells of a 96 deep-well plate. Compounds were serially diluted in Hanks Balanced Salt Solution (HBSS) to achieve a desired dose-response. The resulting diluted solutions (100 μl) were added to the whole blood samples, mixed gently, and incubated for 30 minutes at 37° C., 5% CO2. The blood was then stimulated by addition of Formyl-Methionyl-Leucyl-Phenylalanine (fMLP) (1 μM final concentration) or phorbol myristate acetate (PMA) (10 ng/ml final concentration) and was further incubated for 20 minutes at 37° C., 5% CO2. Dihydrorhodamine 123 (DHR-123) reagent (Invitrogen), a cell-permeable probe that becomes highly fluorescent when oxidized, was then added to the blood at a final concentration of 0.5 μM and incubated for another 20 minutes at 37° C., 5% CO2. The red blood cells were then lysed in 1 ml ammonium chloride-potassium (ACK) lysis buffer (Invitrogen) for 10 minutes at room temperature. The remaining leukocytes (including the neutrophils) were washed once in HBSS and resuspended in HBSS/0.5% paraformaldehyde. To quantify intracellular ROS production, the fluorescence of the oxidized form of DHR-123, which is a fluorescent compound, was measured. The level of oxidized DHR-123 in neutrophils was assessed for each sample by measuring cell fluorescence on a flow cytometer. The IC50 value was calculated using commercially available statistics software and the average IC50 values from the two donors was calculated. The potency of the compound relative to the potency of compound 401 was obtained by dividing the IC50 value of compound 401 by the IC50 value of the compound.

[3] = tested on: TNF-α; assay: TNF-α inhibition assay in LPS-stimulated whole blood; format: cell-based, human; settings: LPS-induced TNF-α in whole blood, potency relative to compound 401, FIG. 1
Description: Whole blood (sodium heparin vacutainer) was obtained from two normal, healthy donors from Research Blood Components, Boston, Mass. For each donor sample, two duplicate assays were performed according to the following procedure. Blood was diluted 1:1 with Opti-MEM® Reduced Serum Medium (Invitrogen) and 100 μl of diluted blood was added to wells of a 96-well plate. The test compounds were serially diluted in Opti-MEM® to create a dose-response. The resulting diluted solutions (50 μl) were then added to the wells containing diluted blood and the mixture was incubated for 15 minutes at 37° C., 5% CO2. Lipopolysaccharide (LPS) strain 113:H10 (obtained from Associates of Cape Cod #E0005) was prepared at a 4× concentration and 50 μl of 4 ng/ml solution was added to the blood to achieve a final concentration of 1 ng/ml. Control wells contained diluted blood and 100 μl Opti-MEM® (negative control) or 50 μl Opti-MEM® plus 50 μl LPS (positive control). Plates were then incubated for 24 h at 37° C., 5% CO2. After incubation, diluted plasma was harvested by centrifugation at 3000 RPM for 2 minutes to pellet the blood cells. Supernatant (diluted plasma) was then transferred into a clean 96-well plate. The diluted plasma was further diluted 1:10 with ELISA reagent diluents and the TNF-α level for each compound was measured following manufacturer's instructions for the DuoSet® ELISAs (R & D Systems). The IC50 value for the compound was calculated using commercially available statistics software and the average IC50 values from the two donors was calculated. The potency of the compound relative to the potency of compound 401 was obtained by dividing the IC50 value of compound 401 by the IC50 value of the compound.

[4] = tested on: IFN-gamma; assay: IFN-gamma assay (blood donors); format: cell-based, human; settings: for IC50: Homo sapiens
[5] = pentoxifylline and its metabolites; cited from earlier work

IC50 ([1]; Donor 1) | IC50 ([1]; Donor 2) | MCP-1 IC50 values compared with Compounds 400 and 401 ([1]; both donors of Table 2) | IC50 ([4]; Donor I) | IC50 ([4]; Donor II) | IFN-gamma IC50 values compared with Compounds 400 and 401 ([4]; one donor) | IFN-gamma IC50 values compared with Compounds 400 and 401 ([4]; second donor) | SMILES | activity (relative potency) in the ROS inhibition assay [2] | activity (relative potency) in the ROS inhibition assay ([2]; listed as M-2) | activity (relative potency) in the TNF-α inhibition assay [3] | activity (relative potency) in the TNF-α inhibition assay ([3]; listed as M-2) | time to peak plasma levels [5]
194 µM | 125 µM | slightly higher | 72 µM | 119 µM | slightly higher | very similar | Cn1cnc2c1c(=O)n(CCCCC(O)CO)c(=O)n2C (stereo not drawn) [Compound 308, 1-(5,6-Dihydroxyhexyl)-3,7-dimethyl-1H-purine-2,6(3H,7H)-dione] | comparable activity | active | comparable activity | active | –
80 µM | 80 µM | – | 78 µM | 63 µM | – | – | CC(=O)CCCCn1c(=O)c2c(ncn2C)n(C)c1=O [Compound 400, 1-(5-oxohexyl)-3,7-dimethylxanthine] | comparable activity | – | comparable activity | – | within one hour
– | – | – | – | – | – | – | CC(O)C(O)CCCn1c(=O)c2c(ncn2C)n(C)c1=O (stereo not drawn) [Compound M-3] | significantly lower activity | – | significantly lower activity | – | –
– | – | – | – | – | – | – | Cn1cnc2c1c(=O)n(CCCCC(=O)O)c(=O)n2C [Compound M-4] | significantly lower activity | – | significantly lower activity | – | –
– | – | – | – | – | – | – | Cn1cnc2c1c(=O)n(CCCC(=O)O)c(=O)n2C [Compound M-5] | significantly lower activity | – | significantly lower activity | – | –
